Data as given in PMC6042793 (PLoS ONE, 2018).

Legend:
[1] = molecular target: sialidase activity of A/Puerto Rico/8/1934 (H1N1) (Influenza A virus, UniProt P03468); assay type: biochemical; conditions: pH 6.5
[2] = molecular target: S. pneumoniae sialidase activity (Streptococcus pneumoniae, UniProt P62575); assay type: biochemical; parameters: key to Test result in the BTP3-based filter method in the presence of NAI: -, not detected; conditions: for NAI susceptibility in the BTP3-based filter method (fluorescence in the presence of NAI): pH 6.5, 56°C 15 min
S. pneumoniae sialidase activity, sequence (P62575 54-1035): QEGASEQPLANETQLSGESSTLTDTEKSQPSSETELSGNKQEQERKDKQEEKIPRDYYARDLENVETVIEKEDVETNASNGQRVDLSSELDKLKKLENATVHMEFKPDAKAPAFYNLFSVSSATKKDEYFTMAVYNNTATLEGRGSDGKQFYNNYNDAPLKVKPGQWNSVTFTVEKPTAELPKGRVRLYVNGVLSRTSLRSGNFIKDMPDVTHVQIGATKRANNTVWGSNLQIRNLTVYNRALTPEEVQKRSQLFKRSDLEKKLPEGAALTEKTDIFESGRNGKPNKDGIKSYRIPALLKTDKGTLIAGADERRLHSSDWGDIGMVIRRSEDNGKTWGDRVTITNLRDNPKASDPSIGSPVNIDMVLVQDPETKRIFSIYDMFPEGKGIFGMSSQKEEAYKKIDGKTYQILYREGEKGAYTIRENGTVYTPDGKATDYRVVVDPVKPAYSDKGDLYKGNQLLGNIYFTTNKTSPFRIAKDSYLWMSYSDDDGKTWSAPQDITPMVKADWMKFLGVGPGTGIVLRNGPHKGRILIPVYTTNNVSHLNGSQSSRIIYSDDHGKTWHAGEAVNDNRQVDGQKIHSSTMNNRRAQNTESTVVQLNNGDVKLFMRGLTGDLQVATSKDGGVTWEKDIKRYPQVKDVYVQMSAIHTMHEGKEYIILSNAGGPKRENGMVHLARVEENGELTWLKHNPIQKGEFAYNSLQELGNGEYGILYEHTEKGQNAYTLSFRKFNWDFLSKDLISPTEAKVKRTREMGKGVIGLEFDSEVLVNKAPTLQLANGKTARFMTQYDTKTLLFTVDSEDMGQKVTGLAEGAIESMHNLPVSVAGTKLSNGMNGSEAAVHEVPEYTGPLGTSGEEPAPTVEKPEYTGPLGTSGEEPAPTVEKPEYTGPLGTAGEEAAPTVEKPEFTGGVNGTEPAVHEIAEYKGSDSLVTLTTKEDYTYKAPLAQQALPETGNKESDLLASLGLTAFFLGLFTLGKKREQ

[3] = system: sialidase activity of A/Shizuoka/19/2016 (H1N1pdm); assay type: biochemical, influenza A virus (H1N1pdm); conditions: pH 6.5
[4] = molecular target: sialidase activity of B/Lee/1940 (Influenza B virus, UniProt P03474); assay type: biochemical; conditions: pH 6.5
sialidase activity of B/Lee/1940, sequence (P03474 whole entry): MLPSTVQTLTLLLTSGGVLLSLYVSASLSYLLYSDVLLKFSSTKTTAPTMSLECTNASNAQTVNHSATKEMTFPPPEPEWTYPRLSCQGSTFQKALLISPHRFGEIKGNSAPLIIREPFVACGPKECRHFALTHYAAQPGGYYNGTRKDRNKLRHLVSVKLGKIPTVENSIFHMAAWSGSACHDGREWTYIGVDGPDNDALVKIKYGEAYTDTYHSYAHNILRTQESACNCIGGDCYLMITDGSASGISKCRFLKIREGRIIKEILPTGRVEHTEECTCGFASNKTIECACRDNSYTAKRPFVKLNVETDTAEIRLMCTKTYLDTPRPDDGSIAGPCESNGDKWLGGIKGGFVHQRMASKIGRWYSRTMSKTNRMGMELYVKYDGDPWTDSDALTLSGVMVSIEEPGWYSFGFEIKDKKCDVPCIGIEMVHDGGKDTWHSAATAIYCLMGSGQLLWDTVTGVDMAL

MuV sialidase activity = MuV sialidase activity (Mumps virus genotype B, UniProt P11235); assay type: biochemical
MuV sialidase activity, sequence (P11235 whole entry): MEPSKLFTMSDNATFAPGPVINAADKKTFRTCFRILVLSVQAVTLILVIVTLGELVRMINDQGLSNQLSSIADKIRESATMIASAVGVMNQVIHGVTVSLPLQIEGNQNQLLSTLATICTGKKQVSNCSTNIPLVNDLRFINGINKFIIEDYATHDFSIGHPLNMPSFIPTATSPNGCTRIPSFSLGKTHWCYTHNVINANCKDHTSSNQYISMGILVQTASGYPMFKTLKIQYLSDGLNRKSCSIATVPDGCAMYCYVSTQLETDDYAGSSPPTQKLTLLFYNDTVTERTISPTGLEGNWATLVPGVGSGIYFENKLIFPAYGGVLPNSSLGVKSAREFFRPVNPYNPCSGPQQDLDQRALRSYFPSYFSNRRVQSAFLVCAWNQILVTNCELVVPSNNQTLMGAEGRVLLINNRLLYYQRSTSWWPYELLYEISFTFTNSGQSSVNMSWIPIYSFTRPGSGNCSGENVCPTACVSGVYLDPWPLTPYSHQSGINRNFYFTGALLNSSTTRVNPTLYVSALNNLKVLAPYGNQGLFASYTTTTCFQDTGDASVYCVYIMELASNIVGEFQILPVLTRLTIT

[5] = system: sialidase activity of A/Memphis/1/1971 (H3N2); assay type: biochemical, influenza A virus (H3N2); conditions: pH 6.5
[6] = system: sialidase activity of A/Shizuoka/17/2016 (H1N1pdm); assay type: biochemical, influenza A virus (H1N1pdm); conditions: pH 6.5

sialidase activity of A/Puerto Rico/8/1934 (H1N1), sequence (P03468 whole entry, looked up): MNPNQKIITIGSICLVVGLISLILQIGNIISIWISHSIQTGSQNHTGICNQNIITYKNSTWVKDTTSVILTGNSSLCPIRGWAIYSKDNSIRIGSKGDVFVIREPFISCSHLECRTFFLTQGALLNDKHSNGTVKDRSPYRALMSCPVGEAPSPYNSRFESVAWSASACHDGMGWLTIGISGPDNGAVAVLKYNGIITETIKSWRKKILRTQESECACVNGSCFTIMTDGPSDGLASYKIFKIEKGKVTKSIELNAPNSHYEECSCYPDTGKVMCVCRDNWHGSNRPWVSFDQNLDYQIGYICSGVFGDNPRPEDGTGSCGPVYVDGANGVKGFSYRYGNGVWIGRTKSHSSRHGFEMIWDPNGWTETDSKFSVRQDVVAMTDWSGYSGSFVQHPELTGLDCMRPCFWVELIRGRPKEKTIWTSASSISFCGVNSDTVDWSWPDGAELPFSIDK

SMILES	BTP3 fluorescence on the membrane in the presence of NAI [1]	Test result in the BTP3-based filter method in the presence of NAI [2]	NAI susceptibility in the BTP3-based filter method (fluorescence in the presence of NAI) [2]	BTP3 fluorescence on the membrane in the presence of NAI [3]	BTP3 fluorescence on the membrane in the presence of NAI [4]	Test result in the BTP3-based filter method in the presence of NAI (MuV sialidase activity)	BTP3 fluorescence on the membrane in the presence of NAI [5]	BTP3 fluorescence on the membrane in the presence of NAI [6]
CCOC(=O)C1=C[C@@H](OC(CC)CC)[C@H](NC(C)=O)[C@@H](N)C1 [OV, oseltamivir]	not observed	-	susceptible	not observed	not observed	Positive	not observed	not observed
[H]/N=C(\N)N[C@H]1C=C(C(=O)O)O[C@@H]([C@H](OC)[C@H](O)CO)[C@@H]1NC(C)=O [LV, laninamivir]	not observed	Positive	showed fluorescence	not observed	not observed	Positive	not observed	not observed
CCC(CC)[C@H](NC(C)=O)[C@@H]1[C@H](O)[C@@H](C(=O)O)C[C@H]1N=C(N)N [PV, peramivir]	not observed	Positive	showed fluorescence	not observed	not observed	Positive	not observed	not observed
CC(=O)N[C@H]1[C@H]([C@H](O)[C@H](O)CO)OC(C(=O)O)=C[C@@H]1N=C(N)N [ZV, zanamivir]		Positive	showed fluorescence	not observed		Positive	not observed	not observed
